Source: patent US12441720B2, “Modulators of the integrated stress response pathway” (EVOTEC INTERNATIONAL GMBH, priority 2020, dated 2025)

Assays:
[1] = tested on: ATF4; assay: HEK-ATF4 High Content Imaging assay (prevention of Tunicamycin induced ISR); assay type: cell-based; conditions: Homo sapiens, wild-type HEK293 cells, 6 hrs incubation, ATF4 signal ratio nucleus/cytoplasm, read-out: Activity (IC50, HEK-ATF4 readout)
Procedure: Example compounds were tested in the HEK-ATF4 High Content Imaging assay to assess their pharmacological potency to prevent Tunicamycin induced ISR. Wild-type HEK293 cells were plated in 384-well imaging assay plates at a density of 12,000 cells per well in growth medium (containing DMEM/F12, 10% FBS, 2 mM L-Glutamine, 100 U/mL Penicillin—100 μg/mL Streptomycin) and incubated at 37° C., 5% CO2. 24-hrs later, the medium was changed to 50 μl assay medium per well (DMEM/F12, 0.3% FBS, 2 mM L-Glutamine, 100 U/mL Penicillin—100 μg/mL Streptomycin). Example compounds were serially diluted in dimethyl sulfoxide (DMSO), spotted into intermediate plates and prediluted with assay medium containing 3.3 μM Tunicamycin to give an 11-fold excess of final assay concentration. In addition to the example compound testing area, the plates also contained multiples of control wells for assay normalization purposes, wells containing Tunicamycin but no example compounds (High control), as well as wells containing neither example compound nor Tunicamycin (Low control). The assay was started by transferring 5 μl from the intermediate plate into the assay plates, followed by incubation for 6 hrs at 37° C., 5% CO2. Subsequently, cells were fixed (4% PFA in PBS, 20 min at room temperature) and submitted to indirect ATF4 immunofluorescence staining (primary antibody rabbit anti ATF4, clone D4B8, Cell Signaling Technologies; secondary antibody Alexa Fluor 488 goat anti-rabbit IgG (H+L), Thermofisher Scientific). Nuclei were stained using Hoechst dye (Thermofisher Scientific), and plates were imaged on an Opera Phenix High Content imaging platform equipped with 405 nm and 488 nm excitation. Finally, images were analyzed using script based algorithms. The main readout HEK-ATF4 monitored the ATF4 signal ratio between nucleus and cytoplasm. Tunicamycin induced an increase in the overall ATF4 ratio signal, which was prevented by ISR modulating example compounds. In addition, HEK-CellCount readout was derived from counting the number of stained nuclei corresponding to healthy cells. This readout served as an internal toxicity control.

[2] = target: T1, human ERG potassium channel (hERG) (Homo sapiens, UniProt Q12809); assay: hERG tail current recording, Rapid ICE automated patch-clamp (QPatch HTX); assay type: cell-based; conditions: recombinant HEK293 cell line stably transfected with hERG cDNA; test concentrations 0.3, 3 and 30 μM; read-out: hERG Activity (IC50, tail current inhibition)
T1 construct: expressed in transfected cells; host or cells: HEK293, stably transfected, tetracycline-inducible
T1 sequence (Q12809 whole entry): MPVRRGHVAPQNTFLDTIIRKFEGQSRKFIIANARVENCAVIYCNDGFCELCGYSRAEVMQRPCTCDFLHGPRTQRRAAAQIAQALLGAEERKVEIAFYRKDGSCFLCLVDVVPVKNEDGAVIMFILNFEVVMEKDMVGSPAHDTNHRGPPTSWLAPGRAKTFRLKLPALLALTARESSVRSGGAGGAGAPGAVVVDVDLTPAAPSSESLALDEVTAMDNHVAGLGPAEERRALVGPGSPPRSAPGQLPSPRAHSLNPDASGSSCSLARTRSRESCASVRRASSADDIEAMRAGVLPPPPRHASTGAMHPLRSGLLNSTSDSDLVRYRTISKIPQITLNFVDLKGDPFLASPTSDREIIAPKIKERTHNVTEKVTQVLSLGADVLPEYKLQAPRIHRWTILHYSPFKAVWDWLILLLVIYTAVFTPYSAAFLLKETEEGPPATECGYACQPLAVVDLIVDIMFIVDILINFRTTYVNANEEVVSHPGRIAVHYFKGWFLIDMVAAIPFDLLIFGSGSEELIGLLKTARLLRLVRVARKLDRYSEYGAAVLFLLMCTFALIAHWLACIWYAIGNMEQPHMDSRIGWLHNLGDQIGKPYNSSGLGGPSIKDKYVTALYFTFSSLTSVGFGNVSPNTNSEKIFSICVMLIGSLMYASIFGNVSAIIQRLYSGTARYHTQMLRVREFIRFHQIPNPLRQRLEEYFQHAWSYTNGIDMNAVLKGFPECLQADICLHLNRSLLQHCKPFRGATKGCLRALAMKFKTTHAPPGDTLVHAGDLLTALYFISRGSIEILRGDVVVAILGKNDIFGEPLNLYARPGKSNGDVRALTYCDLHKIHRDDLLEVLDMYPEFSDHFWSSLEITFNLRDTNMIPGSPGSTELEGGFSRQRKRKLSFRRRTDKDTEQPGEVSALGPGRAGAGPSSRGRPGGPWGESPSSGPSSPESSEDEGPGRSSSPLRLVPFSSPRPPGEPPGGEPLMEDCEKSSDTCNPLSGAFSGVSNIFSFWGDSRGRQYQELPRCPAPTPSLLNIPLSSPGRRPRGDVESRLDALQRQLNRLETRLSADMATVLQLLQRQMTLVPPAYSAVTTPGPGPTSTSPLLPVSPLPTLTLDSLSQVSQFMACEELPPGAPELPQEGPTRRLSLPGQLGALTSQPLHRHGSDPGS
Procedure: The potency of the example compounds in inhibiting human ERG potassium channel (hERG) tail current was assessed in a recombinant HEK293 cell line stably transfected with hERG cDNA under an inducible promoter, using Rapid ICE (rapid ion channel electrophysiology) assay. Rapid ICE is an automated patch-clamp assay utilizing the QPatch HTX system (Sophion Bioscience A/S). Briefly, inducible HEK hERG cells were cultivated in minimum essential medium supplemented with 10% FBS, 1% non-essential amino acids, 1% sodium pyruvate, 2 mM 1-glutamine, 15 μg/mL blasticidin, and 100 μg/mL hygromycin. hERG channel expression induction was obtained by adding 10 μg/mL tetracycline for 24, 48, or 72 h before recordings.
On the day of the experiment, cells were detached with TrypLE and prepared to be loaded on the instrument. Cells were resuspended in 7 mL of Serum-Free Media containing 25 mM Hepes and soybean trypsin inhibitor and immediately placed in the cell storage tank of the machine. The composition of the extracellular buffer was (mM): NaCl 137, KCl 4, CaCl2 1.8, MgCl2 1.0, d-glucose 10, N-2-hydroxyethylpiperazine-N′-2-ethanesulfonic acid (HEPES) 10, pH 7.4 with 1 M NaOH. The composition of the intracellular solution was (mM): KCl 130, MgCl2 1.0, ethylene glycol-bis(β-aminoethyl ether)-N,N,N′,N′-tetraacetic acid (EGTA) 5, MgATP 5, HEPES 10, pH 7.2 with 1 M KOH. The voltage protocol included the following steps: step from −80 to −50 mV for 200 ms, +20 mV for 4.8 s, step to −50 mV for 5 s, then step to the holding potential of […]. Example compounds were dissolved in DMSO and diluted in extracellular buffer to achieve final test concentrations (0.3, 3, and 30 μM) in 0.3% DMSO. The voltage protocol was run and recorded continuously during the experiment. The vehicle, corresponding to 0.3% DMSO in extracellular buffer was then applied for 3 min, followed by the example compound in triplicate. The standard combined exposure time was 5 min. The average of tail current amplitude values recorded from four sequential voltage pulses was used to calculate for each cell the effect of the example compound by calculating the residual current (% control) compared with vehicle pretreatment. Data were reported as % inhibition for each concentration tested, and IC50 values were estimated using QPatch software. At least two cells were tested, and even more if results diverged.

Compound	IC50 [1]	IC50 [2]
O=C(COc1ccc(Cl)c(F)c1)N[C@H]1CO[C@@H](c2cn(-c3ccc(Cl)cc3)nn2)OC1 [Example 3, 2-(4-chloro-3-fluorophenoxy)-N-[cis-2-[1-(4-chlorophenyl)-1H-1,2,3-triazol-4-yl]-1,3-dioxan-5-yl]acetamide]	2000 to 15000 nM	
O=C(COc1ccc(Cl)c(F)c1)N[C@H]1CO[C@H](c2nnc(-c3ccc(Cl)cc3)o2)OC1 [Example 1, 2-(4-chloro-3-fluorophenoxy)-N-[trans-2-[5-(4-chlorophenyl)-1,3,4-oxadiazol-2-yl]-1,3-dioxan-5-yl]acetamide]	1 to 500 nM	
O=C(COc1ccc(Cl)c(F)c1)N[C@H]1CO[C@H](c2nnc([C@H]3C[C@@H](OC(F)(F)F)C3)o2)OC1 [Example 2, 2-(4-chloro-3-fluorophenoxy)-N-[trans-2-{5-[cis-3-(trifluoromethoxy)cyclobutyl]-1,3,4-oxadiazol-2-yl}-1,3-dioxan-5-yl]acetamide]	1 to 500 nM	> 5000 nM
O=C(COc1ccc(Cl)c(F)c1)N[C@H]1CO[C@H](c2nnc(OCCCC(F)(F)F)o2)OC1 [Example 5, 2-(4-chloro-3-fluorophenoxy)-N-[trans-2-[5-(4,4,4-trifluorobutoxy)-1,3,4-oxadiazol-2-yl]-1,3-dioxan-5-yl]acetamide]	1 to 500 nM	1000 to 5000 nM
O=C(COc1ccc(Cl)c(F)c1)N[C@H]1CO[C@H](c2cn(-c3ccc(Cl)cc3)nn2)OC1 [Example 4, 2-(4-chloro-3-fluorophenoxy)-N-[trans-2-[1-(4-chlorophenyl)-1H-1,2,3-triazol-4-yl]-1,3-dioxan-5-yl]acetamide]	500 to 2000 nM	

The next lines start with results.

IC50 [1]	Compound	IC50 [2]
1 to 500 nM	O=C(COc1ccc(Cl)c(F)c1)N[C@H]1CO[C@H](c2nnc(OCCOC(F)(F)F)o2)OC1 [Example 6, 2-(4-chloro-3-fluorophenoxy)-N-[trans-2-{5-[2-(trifluoromethoxy)ethoxy]-1,3,4-oxadiazol-2-yl}-1,3-dioxan-5-yl]acetamide]	> 5000 nM
1 to 500 nM	O=C(COc1ccc(C(F)F)c(Cl)c1)N[C@H]1CO[C@H](c2nnc(N3CC(OC(F)(F)F)C3)o2)OC1 [Example 8, 2-[3-chloro-4-(difluoromethyl)phenoxy]-N-[trans-2-{5-[3-(trifluoromethoxy)azetidin-1-yl]-1,3,4-oxadiazol-2-yl}-1,3-dioxan-5-yl]acetamide]	> 5000 nM
1 to 500 nM	O=C(COc1ccc(Cl)c(Cl)c1)N[C@H]1CO[C@H](c2nnc(OCCOC(F)(F)F)o2)OC1 [Example 9, 2-(3,4-dichlorophenoxy)-N-[trans-2-{5-[2-(trifluoromethoxy)ethoxy]-1,3,4-oxadiazol-2-yl}-1,3-dioxan-5-yl]acetamide]	> 5000 nM
1 to 500 nM	O=C(COc1ccc(Cl)c(F)c1)N[C@H]1CO[C@H](c2nnc(N3CC(OC(F)(F)F)C3)o2)OC1 [Example 7, 2-(4-chloro-3-fluorophenoxy)-N-[trans-2-{5-[3-(trifluoromethoxy)azetidin-1-yl]-1,3,4-oxadiazol-2-yl}-1,3-dioxan-5-yl]acetamide]	> 5000 nM
2000 to 15000 nM	O=C(COc1cnc(Cl)c(F)c1)N[C@H]1CO[C@H](c2nnc([C@H]3C[C@@H](OC(F)(F)F)C3)o2)OC1 [Example 10, 2-[(6-chloro-5-fluoro-3-pyridyl)oxy]-N-[trans-2-[5-[cis-3-(trifluoromethoxy)cyclobutyl]-1,3,4-oxadiazol-2-yl]-1,3-dioxan-5-yl]acetamide]	> 5000 nM
